Results as given in patent publication US8063204B2, “Benzothiazole and benzoxazole linked pyrrolo[2,1-c] [1, 4] benzodiazepine hybrids as novel antitumour agents and process for the preparation thereof” (Council of Scientific & Industrial Research, priority 2007, dated 2011).

How the values were obtained:
Melanoma = assay: NCI in vitro anticancer screen, SRB assay, melanoma panel; assay type: cell-based, human; settings: average of six to nine cell lines, 48 h; for GI50: Homo sapiens, read-out: Log10 GI50 (converted)
Method: (§1) Anticancer activity: In vitro biological activity studies were carried out at the National Cancer Institute (USA).
(§2) The compounds were evaluated for in vitro anticancer activity against sixty human tumour cells derived from nine cancer types (leukemia, non-small-cell lung, colon, CNS, melanoma, ovarian, prostate, and breast cancer) as shown in Table 3. For each compound, dose response curves for each cell line were measured at a minimum of five concentrations at 10 fold dilutions. A protocol of 48 h continuous drug exposure was used and a sulforhodamine B (SRB) protein assay was used to estimate cell viability or growth. The concentration causing 50% cell growth inhibition (GI50), total cell growth inhibition (TGI 0% growth) and 50% cell death (LC50, −50% growth) compared with the control was calculated.

Leukemia = assay: NCI in vitro anticancer screen, SRB assay, leukemia panel; assay type: cell-based, human; settings: average of six to nine cell lines, 48 h; for GI50: Homo sapiens, read-out: Log10 GI50 (converted)
Method: as §1, §2

Non-small-cell-lung = assay: NCI in vitro anticancer screen, SRB assay, non-small-cell lung panel; assay type: cell-based, human; settings: average of six to nine cell lines, 48 h; for GI50: Homo sapiens, read-out: Log10 GI50 (converted)
Method: as §1, §2

Colon = assay: NCI in vitro anticancer screen, SRB assay, colon panel; assay type: cell-based, human; settings: average of six to nine cell lines, 48 h; for GI50: Homo sapiens, read-out: Log10 GI50 (converted)
Method: as §1, §2

[1] = system: duplex-form calf thymus DNA (CT-DNA); assay: Thermal denaturation studies with calf thymus DNA (DNA binding affinity); settings: [PBD]:[DNA] molar ratio 1:5, CT-DNA 100 μM, ligand 20 μM, sodium phosphate buffer pH 7.00; for ΔTm after incubation at 37° C. for 0 h: 0 h incubation; for ΔTm after incubation at 37° C. for 18 h: 18 h incubation
Method: Compounds have been subjected to thermal denaturation studies with duplex-form calf thymus DNA (CT-DNA) using an modification of a reported procedure (Newman, M. S. Carcinog-compr. Surv. 1976, 1, 203; (b) Hecht, S. S.; Loy, M.; Hoffman, Carcinog-compr. Surv. 1976, 1, 325). Working solutions in aqueous buffer (10 mM NaH2PO4/Na2HPO4, 1 mM Na2EDTA, pH 7.00+0.01) containing CT-DNA (100 μm in phosphate) and the PBD (20 μm) have been prepared by addition of concentrated PBD solutions in DMSO to obtain a fixed [PBD]/[DNA] molar ratio of 1:5. The DNA-PBD solutions have been incubated at 37° C. for 0 and 18 h prior to analysis. Samples have been monitored at 260 nm using a Beckman DU-800 spectrophotometer fitted with high performance temperature controller, and heated at 1° C. min^−1 in the 40-110° C. range. DNA helix→coil transition temperatures (Tm) have been obtained from the maxima in the d(A260)/dT derivative plots. Drug-induced alterations in DNA melting behavior are given by: ΔTm=Tm(DNA+PBD)−Tm(DNA alone), where the Tm value for the PBD-free CT-DNA is 69.1±0.01.
The DNA binding activity for these novel C8-linked benzothiazole, benzoxazole-PBD hybrids has been examined by thermal denaturation studies using calf thymus (CT) DNA. […] The data for the compounds 9a-h is included in Table 1 for comparison.

CNS = assay: NCI in vitro anticancer screen, SRB assay, CNS panel; assay type: cell-based, human; settings: average of six to nine cell lines, 48 h; for GI50: Homo sapiens, read-out: Log10 GI50 (converted)
Method: as §1, §2

Renal = assay: NCI in vitro anticancer screen, SRB assay, renal panel; assay type: cell-based, human; settings: average of six to nine cell lines, 48 h; for GI50: Homo sapiens, read-out: Log10 GI50 (converted)
Method: as §1, §2

Ovarian = assay: NCI in vitro anticancer screen, SRB assay, ovarian panel; assay type: cell-based, human; settings: average of six to nine cell lines, 48 h; for GI50: Homo sapiens, read-out: Log10 GI50 (converted)
Method: as §1, §2

[2] = system: sixty human tumour cells derived from nine cancer types; assay: cells; assay type: cell-based; settings: for Log10GI50 mean graph midpoint (MG_MID) / Log10LC50 mean graph midpoint (MG_MID) / Log10TGI mean graph midpoint (MG_MID): 48 h continuous drug exposure, SRB, mean over human tumour cell lines; for log10 GI50 anticancer activity, range over nine cancer cell types: range across nine cancer cell type
Method: as §1, §2

Prostate = assay: NCI in vitro anticancer screen, SRB assay, prostate panel; assay type: cell-based, human; settings: average of six to nine cell lines, 48 h; for GI50: Homo sapiens, read-out: Log10 GI50 (converted)
Method: as §1, §2

Breast = assay: NCI in vitro anticancer screen, SRB assay, breast panel; assay type: cell-based, human; settings: average of six to nine cell lines, 48 h; for GI50: Homo sapiens, read-out: Log10 GI50 (converted)
Method: as §1, §2

[3] = against nine human tumor cell lines

| Compound | ΔTm after incubation at 37° C. for 0 h [1] [°C] | ΔTm after incubation at 37° C. for 18 h [1] [°C] | Log10GI50 mean graph midpoint (MG_MID) [2] | Log10LC50 mean graph midpoint (MG_MID) [2] | Log10TGI mean graph midpoint (MG_MID) [2] | log10 GI50 anticancer activity, range over nine cancer cell types [2] [mole/lit] | GI50 (Melanoma) [µM] | GI50 (Leukemia) [µM] | GI50 (Non-small-cell-lung) [µM] | GI50 (Colon) [µM] | GI50 (CNS) [µM] | GI50 (Renal) [µM] | GI50 (Ovarian) [µM] | GI50 (Prostate) [µM] | GI50 (Breast) [µM] | further results |
| --- | --- | --- | --- | --- | --- | --- | --- | --- | --- | --- | --- | --- | --- | --- | --- | --- |
| COc1cc2c(cc1OCCCCOc1ccc(-c3nc4ccccc4s3)cc1)N=C[C@@H]1CCCN1C2=O [Compound 9a, 7-Methoxy-8-{4-[4-(1,3-benzothiazol-2-yl)phenoxy]butyl}oxy-(11aS)-1,2,3,11a-tetrahydro-5H-pyrrolo[2,1-c][1,4]benzodiazepin-5-one] | 0.5 | 0.5 | −6.30 | −4.75 | −5.63 | −6.08 to −6.73 |  |  |  |  |  |  |  |  |  | Log10 GI50 (Melanoma): −6.10 mol/L; Log10 GI50 (Leukemia): −6.73 mol/L; Log10 GI50 (Non-small-cell-lung): −6.12 mol/L; Log10 GI50 (Colon): −6.38 mol/L; Log10 GI50 (CNS): −6.20 mol/L; Log10 GI50 (Renal): −6.33 mol/L; Log10 GI50 (Ovarian): −6.08 mol/L; LC50 (50% cell kill) ([2]; Homo sapiens, read-out: log10 LC50 mean graph midpoint value (converted)): 17.8 µM; log10 GI50 mean graph midpoint value [2, 3]: −6.30 mol/lit; log10 TGI mean graph midpoint value [2, 3]: −5.63 mol/lit; Log10 GI50 (Prostate): −6.55 mol/L; Log10 GI50 (Breast): −6.43 mol/L |
| COc1cc(-c2nc3ccccc3s2)ccc1OCCCCOc1cc2c(cc1OC)C(=O)N1CCC[C@H]1C=N2 [Compound 9b, 7-Methoxy-8-{4-[4-(1,3-benzothiazol-2-yl)-2-methoxyphenoxy]butyl}oxy-(11aS)-1,2,3,11a-tetrahydro-5H-pyrrolo[2,1-c][1,4]benzodiazepin-5-one] | 0.5 | 0.5 | −6.07 | −4.67 | −5.47 | −5.85 to −6.45 | 1.17 | 0.398 | 1.23 | 0.759 | 1.02 | 0.851 | 1.41 | 0.355 | 0.646 |  |
| COc1cc2c(cc1OCCCCCOc1ccc(-c3nc4ccccc4s3)cc1)N=C[C@@H]1CCCN1C2=O [Compound 9c, 7-Methoxy-8-{5-[4-(1,3-benzothiazol-2-yl)phenoxy]pentyl}oxy-(11aS)-1,2,3,11a-tetrahydro-5H-pyrrolo[2,1-c][1,4]benzodiazepin-5-one] | 4.1 | 4.3 | −6.15 | −4.35 | −5.30 | −5.87 to −6.65 | 0.692 | 0.224 | 0.851 | 0.676 | 1.12 | 0.794 | 1.35 | 0.288 | 0.525 |  |
| COc1cc(-c2nc3ccccc3s2)ccc1OCCCCCOc1cc2c(cc1OC)C(=O)N1CCC[C@H]1C=N2 [Compound 9d, 7-Methoxy-8-{5-[4-(1,3-benzothiazol-2-yl)-2-methoxyphenoxy]pentyl}oxy-(11aS)-1,2,3,11a-tetrahydro-5H-pyrrolo[2,1-c][1,4]benzodiazepin-5-one] | 6.2 | 6.3 | −7.09 | −4.37 | −5.78 | −6.79 to −7.51 | 0.0832 | 0.0309 | 0.0955 | 0.0832 | 0.1 | 0.11 | 0.162 | 0.0339 | 0.0562 |  |
| COc1cc2c(cc1OCCCCCOc1ccc(-c3nc4ccccc4o3)cc1)N=C[C@@H]1CCCN1C2=O [Compound 9e, 7-Methoxy-8-{5-[4-(1,3-benzoxazol-2-yl)phenoxy]pentyl}oxy-(11aS) 1,2,3,11a-tetra-hydro-5H-pyrrolo[2,1-c][1,4]benzodiazepin-5-one] | 0.5 | 0.5 |  |  |  |  |  |  |  |  |  |  |  |  |  |  |
| COc1cc(-c2nc3ccccc3o2)ccc1OCCCCCOc1cc2c(cc1OC)C(=O)N1CCC[C@H]1C=N2 [Compound 9f, 7-Methoxy-8-{5-[4-(1,3-benzoxazol-2-yl)-2-methoxyphenoxy]pentyl}oxy-(11aS) 1,2,3,11a-tetra-hydro-5H-pyrrolo[2,1-c][1,4]benzodiazepin-5-one] | 2.1 | 4.2 |  |  |  |  |  |  |  |  |  |  |  |  |  |  |
| COc1cc2c(cc1OCCCCCC(=O)Nc1ccc(-c3nc4ccccc4s3)cc1)N=C[C@@H]1CCCN1C2=O [Compound 9g, 7-Methoxy-8-{5-[N^1-(4-(1,3-benzothiazol-2-yl)phenyl)]pentanecarboxamide}oxy-(11aS)-1,2,3,11a-tetra-hydro-5H-pyrrolo[2,1-c][1,4]benzodiazepin-5-one] | 4.1 | 4.3 |  |  |  |  |  |  |  |  |  |  |  |  |  |  |
| COc1cc2c(cc1OCCCCCC(=O)Nc1ccc(-c3nc4ccc(F)cc4s3)cc1)N=C[C@@H]1CCCN1C2=O [Compound 9h, 7-Methoxy-8-{5-[N^1-(4-(6-fluoro-1,3-benzothiazol-2-yl)phenyl)]pentanecarboxamide}oxy-(11aS)-1,2,3,11a-tetra-hydro-5H-pyrrolo[2,1-c][1,4]benzodiazepin-5-one] | 4.2 | 2.3 |  |  |  |  |  |  |  |  |  |  |  |  |  |  |
| COc1cc2c(cc1O)N=CC1CCCN1C2=O (stereo not shown) [DC-81, reference compound] | 0.3 | 0.7 |  |  |  |  |  |  |  |  |  |  |  |  |  |  |
